Laboratory results reported in US8883745B2, “C—glycolipids with enhanced Th-1 profile” (New York University, priority 2006, dated 2014).

Assays:
Type in all cases: in vivo
[1] = system: IL-4; experiment: IL-4 levels in sera upon i.v. glycolipid administration to C57BL/6 mice (ELISA); set-up: unit not given here
Experimental: (§1) Five- to six-week-old female C57BL/6 mice and BALB/c mice were purchased from Taconic. Each glycolipid was stored at 1 mg/ml in 100% DMSO. Mice were injected intravenously with 1 μg of each glyocolipid diluted in 200 μL sterile phosphate buffered saline (PBS). At indicated time points, sera were collected from each animal, and concentrations of IFN-γ, IL-4, and IL-12 in the sera were evaluated by enzyme-linked immunosorbent assay (ELISA). Serum concentrations of IFN-γ, IL-4, and IL-12 were evaluated using an ELISA kit (eBioscience, San Diego, Calif.). Briefly, 96 well flat-bottom ELISA plates (NUNC) were coated with capture antibody according to the manufacture's recommendation and incubated overnight at 4° C. The plates were washed with PBS+0.05% Tween 20 (PBS-T), then incubated with manufacturer provided blocking solution for 1 hr at room temperature to block non-specific binding sites. After washing with PBS-T, sera diluted 1:10 was added to the wells and incubated for 2 hrs at room temperature. Plates were then incubated at room temperature for 1 hr with biotintylated detection antibody, washed, incubated with avidin conjugated to horse radish peroxidase (HRP) for 30 min at room temperature, washed, and finally incubated with tetramethylbenzidine substrate solution in the dark for 10 minutes at room temperature. The antibodies, avidin-HRP, and substrate solution were all diluted according to the manufacture's recommendation. Reactions were stopped with 2.0N sulfuric acid and the cytokine concentration in each well was determined by comparing the absorbance at 450 nm in each well to known standards. The levels of Th1- and Th2-type cytokines were determined in two different genetic backgrounds, i.e., in C57BL/6 mice and BALB/c mice. The following compounds were administered: A=compound (A-1 trans-conformer), B=compound (A-2), C=compound (A-3), D=compound (A-4), E=compound (A-5), Z=control (PBS alone), CRONY=α-C-GalCer, KRN=α-GalCer, GCK109 (A-1 trans-conformer), GCK151 (A-1 cis-conformer), GCK152 (A-7). The levels of cytokines were measured at 0, 2, 6, 12, 24, 48, and 72 hours after the compound administration. The levels of Th1-type cytokines IFN-γ and IL-12 are summarized in FIGS. 2A-C and 3A-C, respectively. Table 7 provides IFN-γ/IL-4 and IL-12/IL-4 ratios for various compounds, which can be used as indicators of their ability to selectively stimulate Th1-type immune responses.

[2] = system: IFN-γ; experiment: IFN-γ levels in sera upon i.v. glycolipid administration to C57BL/6 mice (ELISA); set-up: IFN-γ levels, test 1 / IFN-γ levels, test 2 / IFN-γ levels, average / IFN-γ levels, Total / IFN-γ (B6): unit not given here
Experimental: as §1

[3] = system: IL-4; experiment: IL-4 levels in sera upon i.v. glycolipid administration to BALB/c mice (ELISA); set-up: unit not given here
Experimental: as §1

[4] = system: IL-12; experiment: IL-12 levels in sera upon i.v. glycolipid administration to C57BL/6 mice (ELISA); set-up: IL-12 levels, test 1 / IL-12 levels, test 2 / IL-12 levels, average / IL-12 levels, Total: unit not given here
Experimental: as §1

[5] = C57BL/6, ratio calculated from Tables 1-6
[6] = C57BL/6, serum, total over hours 0-72

With `CCCCCCCCCCCCCC[C@@H](O)[C@@H](O)[C@H](CC[C@H]1O[C@H](CO)[C@H](O)[C@H](O)[C@H]1O)NC(=O)CCCCCCCCCCCCCCCCCCCOCCCCCC` [A-4] the “IL-4 level, average” value ([1]; hour 0) was 46, the “IL-4 level, test 1” value ([1]; hour 0) was 46 and the “IL-4 level, test 2” value ([1]; hour 0) was 46. The “IL-4 level, average” value ([1]; hour 2) was 696.5, the “IL-4 level, test 1” value ([1]; hour 2) was 627 and the “IL-4 level, test 2” value ([1]; hour 2) was 766. For the same compound, the “IL-4 level, average” value ([1]; hour 6) was 126, the “IL-4 level, test 1” value ([1]; hour 6) was 83 and the “IL-4 level, test 2” value ([1]; hour 6) was 169. For the same compound, the “IL-4 level, average” value ([1]; hour 12) was 43.5, the “IL-4 level, test 1” value ([1]; hour 12) was 40 and the “IL-4 level, test 2” value ([1]; hour 12) was 47. For the same compound, the “IL-4 level, average” value ([1]; hour 24) was 29.5, the “IL-4 level, test 1” value ([1]; hour 24) was 29 and the “IL-4 level, test 2” value ([1]; hour 24) was 30. The “IL-4 level, average” value ([1]; hour 48) was 28.5, the “IL-4 level, test 1” value ([1]; hour 48) was 39 and the “IL-4 level, test 2” value ([1]; hour 48) was 18. The “IL-4 level, average” value ([1]; hour 72) was 41.5, the “IL-4 level, test 1” value ([1]; hour 72) was 54 and the “IL-4 level, test 2” value ([1]; hour 72) was 29. For the same compound, the “IL-4 level, Total” value ([1]; total over hours 0-72) was 1014, the “IFN-γ/IL-4 (B6)” value [2, 5] was 10 and the “IFN-γ levels, average” value ([2]; C57BL/6, serum, hour 0) was 31. For the same compound, the “IFN-γ levels, test 1” value ([2]; C57BL/6, serum, hour 0) was 31, the “IFN-γ levels, test 2” value ([2]; C57BL/6, serum, hour 0) was 31 and the “IFN-γ levels, average” value ([2]; C57BL/6, serum, hour 2) was 308.5. For the same compound, the “IFN-γ levels, test 1” value ([2]; C57BL/6, serum, hour 2) was 255, the “IFN-γ levels, test 2” value ([2]; C57BL/6, serum, hour 2) was 362 and the “IFN-γ levels, average” value ([2]; C57BL/6, serum, hour 6) was 1329. For the same compound, the “IFN-γ levels, test 1” value ([2]; C57BL/6, serum, hour 6) was 1381, the “IFN-γ levels, test 2” value ([2]; C57BL/6, serum, hour 6) was 1277 and the “IFN-γ levels, average” value ([2]; C57BL/6, serum, hour 12) was 2335.5. For the same compound, the “IFN-γ levels, test 1” value ([2]; C57BL/6, serum, hour 12) was 2466, the “IFN-γ levels, test 2” value ([2]; C57BL/6, serum, hour 12) was 2205 and the “IFN-γ levels, average” value ([2]; C57BL/6, serum, hour 24) was 5563.5. The “IFN-γ levels, test 1” value ([2]; C57BL/6, serum, hour 24) was 5291, the “IFN-γ levels, test 2” value ([2]; C57BL/6, serum, hour 24) was 5836 and the “IFN-γ levels, average” value ([2]; C57BL/6, serum, hour 48) was 742. For the same compound, the “IFN-γ levels, test 1” value ([2]; C57BL/6, serum, hour 48) was 581, the “IFN-γ levels, test 2” value ([2]; C57BL/6, serum, hour 48) was 903 and the “IFN-γ levels, average” value ([2]; C57BL/6, serum, hour 72) was 220.5. The “IFN-γ levels, test 1” value ([2]; C57BL/6, serum, hour 72) was 245, the “IFN-γ levels, test 2” value ([2]; C57BL/6, serum, hour 72) was 196 and the “IFN-γ levels, Total” value [2, 6] was 10532. The “IL-4 level, average” value ([3]; hour 0) was 27, the “IL-4 level, test 1” value ([3]; hour 0) was 27 and the “IL-4 level, test 2” value ([3]; hour 0) was 27. The “IL-4 level, average” value ([3]; hour 2) was 207, the “IL-4 level, test 1” value ([3]; hour 2) was 200 and the “IL-4 level, test 2” value ([3]; hour 2) was 214. For the same compound, the “IL-4 level, average” value ([3]; hour 6) was 79.5, the “IL-4 level, test 1” value ([3]; hour 6) was 85 and the “IL-4 level, test 2” value ([3]; hour 6) was 74. The “IL-4 level, average” value ([3]; hour 12) was 58, the “IL-4 level, test 1” value ([3]; hour 12) was 64 and the “IL-4 level, test 2” value ([3]; hour 12) was 52. The “IL-4 level, average” value ([3]; hour 24) was 67.5, the “IL-4 level, test 1” value ([3]; hour 24) was 50 and the “IL-4 level, test 2” value ([3]; hour 24) was 85. For the same compound, the “IL-4 level, average” value ([3]; hour 48) was 59, the “IL-4 level, test 1” value ([3]; hour 48) was 52 and the “IL-4 level, test 2” value ([3]; hour 48) was 66. For the same compound, the “IL-4 level, average” value ([3]; hour 72) was 12, the “IL-4 level, test 1” value ([3]; hour 72) was 12 and the “IL-4 level, test 2” value ([3]; hour 72) was 12. For the same compound, the “IL-4 level, Total” value ([3]; total over hours 0-72) was 511, the “IL-12/IL-4 (B6)” value [4, 5] was 1.3 and the “IL-12 levels, average” value ([4]; C57BL/6, serum, hour 0) was 5. The “IL-12 levels, test 1” value ([4]; C57BL/6, serum, hour 0) was 5, the “IL-12 levels, test 2” value ([4]; C57BL/6, serum, hour 0) was 5 and the “IL-12 levels, average” value ([4]; C57BL/6, serum, hour 2) was 458.5. The “IL-12 levels, test 1” value ([4]; C57BL/6, serum, hour 2) was 490, the “IL-12 levels, test 2” value ([4]; C57BL/6, serum, hour 2) was 427 and the “IL-12 levels, average” value ([4]; C57BL/6, serum, hour 6) was 685.5. The “IL-12 levels, test 1” value ([4]; C57BL/6, serum, hour 6) was 740, the “IL-12 levels, test 2” value ([4]; C57BL/6, serum, hour 6) was 631 and the “IL-12 levels, average” value ([4]; C57BL/6, serum, hour 12) was 124. The “IL-12 levels, test 1” value ([4]; C57BL/6, serum, hour 12) was 18, the “IL-12 levels, test 2” value ([4]; C57BL/6, serum, hour 12) was 230 and the “IL-12 levels, average” value ([4]; C57BL/6, serum, hour 24) was 0. For the same compound, the “IL-12 levels, test 1” value ([4]; C57BL/6, serum, hour 24) was 0, the “IL-12 levels, test 2” value ([4]; C57BL/6, serum, hour 24) was 0 and the “IL-12 levels, average” value ([4]; C57BL/6, serum, hour 48) was 0. The “IL-12 levels, test 1” value ([4]; C57BL/6, serum, hour 48) was 0, the “IL-12 levels, test 2” value ([4]; C57BL/6, serum, hour 48) was 0 and the “IL-12 levels, average” value ([4]; C57BL/6, serum, hour 72) was 0. The “IL-12 levels, test 1” value ([4]; C57BL/6, serum, hour 72) was 0, the “IL-12 levels, test 2” value ([4]; C57BL/6, serum, hour 72) was 0 and the “IL-12 levels, Total” value [4, 6] was 1274.
